Results as given in US8846746B2, “Pyrazole compound and pharmaceutical use thereof” (Japan Tobacco Inc., priority 2011, dated 2014).

molecular target: human SGLT1 (Homo sapiens (Human), UniProt P13866); assay: SGLT1 inhibitory activity: 14C-AMG uptake into CHO-K1 cell line stably expressing human SGLT1; type: cell-based; conditions: 14C-AMG uptake, CHO-K1 cells expressing human SGLT1
How it was run: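 Human SGLT1 was stably expressed in CHO-K1 cells. Cells were first held 20 min in sodium-free buffer, then exposed to compound in Na(+)/BSA buffer with tracer and AMG (2 mM in the added solution).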

human SGLT1, sequence (P13866 whole entry): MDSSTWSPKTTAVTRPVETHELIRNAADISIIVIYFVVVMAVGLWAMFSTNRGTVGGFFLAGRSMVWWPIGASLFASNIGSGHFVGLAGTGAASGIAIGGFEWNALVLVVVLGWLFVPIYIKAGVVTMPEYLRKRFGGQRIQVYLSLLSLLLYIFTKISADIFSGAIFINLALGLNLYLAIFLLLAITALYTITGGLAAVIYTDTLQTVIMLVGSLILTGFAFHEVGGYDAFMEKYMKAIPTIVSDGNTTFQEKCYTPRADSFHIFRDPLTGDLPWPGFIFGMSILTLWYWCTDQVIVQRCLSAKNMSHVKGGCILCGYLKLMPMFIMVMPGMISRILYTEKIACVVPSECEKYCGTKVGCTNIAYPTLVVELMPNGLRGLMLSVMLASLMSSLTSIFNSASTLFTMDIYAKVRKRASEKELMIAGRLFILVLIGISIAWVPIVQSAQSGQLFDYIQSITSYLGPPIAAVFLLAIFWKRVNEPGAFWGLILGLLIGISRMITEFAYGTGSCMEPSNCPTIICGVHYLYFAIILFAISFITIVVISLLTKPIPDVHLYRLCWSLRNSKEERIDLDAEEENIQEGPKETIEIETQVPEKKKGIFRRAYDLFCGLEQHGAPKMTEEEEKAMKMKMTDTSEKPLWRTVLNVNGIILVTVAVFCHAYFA

IC50	SMILES
15 nM	O=C1C[C@@H](C(=O)Nc2cc(-c3cccc(OC(F)(F)F)c3)n(-c3ccc(F)cc3)n2)CN1 [Example 147]
10 nM	O=C1C[C@@H](C(=O)Nc2cc(-c3cccc(OCC(F)(F)F)c3)n(-c3ccccc3)n2)CN1 [Example 148]
9.5 nM	O=C1C[C@@H](C(=O)Nc2cc(-c3cccc(OCCC(F)(F)F)c3)n(-c3ccccc3)n2)CN1 [Example 149]
9.3 nM	C[C@H]1C(=O)NC[C@@H]1C(=O)Nc1cc(-c2cccc(OC(F)(F)F)c2)n(-c2ccc(Cl)cc2)n1 [Example 152]
3.3 nM	CC(C)(C)c1cccc(-c2cc(NC(=O)[C@H]3CNC(=O)C3)nn2-c2ccc(Cl)cc2)c1 [Example 153]
1.1 nM	CCC(F)(F)c1cccc(-c2cc(NC(=O)[C@H]3CNC(=O)[C@@H]3C)nn2-c2ccccc2)c1 [Example 154]
19 nM	CCC(F)(F)c1cccc(-c2cc(NC(=O)[C@H]3CNC(=O)C3)nn2C2CCOCC2)c1 [Example 155]
2.7 nM	Cc1ccccc1-n1nc(NC(=O)[C@H]2CNC(=O)C2)cc1-c1cccc(OC(F)(F)F)c1 [Example 156]
13 nM	O=C1C[C@@H](C(=O)Nc2cc(-c3cccc(OC(F)(F)F)c3)n(-c3cccc(F)c3)n2)CN1 [Example 157]
3.4 nM	CC(C)C(F)(F)c1cccc(-c2cc(NC(=O)[C@H]3CNC(=O)C3)nn2-c2ccc(Cl)cc2)c1 [Example 158]
17 nM	O=C1C[C@@H](C(=O)Nc2cc(-c3cccc(OCC(F)(F)F)c3)n(-c3ccc(Cl)cc3)n2)CN1 [Example 159]
11 nM	O=C1C[C@@H](C(=O)Nc2cc(-c3cccc(OCCC(F)(F)F)c3)n(-c3ccc(Cl)cc3)n2)CN1 [Example 160]
22 nM	CC(F)(F)c1cccc(-c2cc(NC(=O)[C@H]3CNC(=O)C3)nn2-c2ccccc2)c1 [Example 161]
19 nM	CC(F)(F)c1cccc(-c2cc(NC(=O)[C@H]3CNC(=O)C3)nn2-c2ccc(Cl)cc2)c1 [Example 162]
7.1 nM	COc1cccc(-n2nc(NC(=O)[C@H]3CNC(=O)C3)cc2-c2cccc(OC(F)(F)F)c2)c1 [Example 163]
2.6 nM	CCC(F)(F)c1cccc(-c2cc(NC(=O)[C@H]3CNC(=O)C3)nn2-c2cccc(OC)c2)c1 [Example 164]
2.9 nM	C[C@H]1C(=O)NC[C@@H]1C(=O)Nc1cc(-c2cccc(OC(F)(F)F)c2)n(-c2ccccc2F)n1 [Example 166]
3 nM	CCC(F)(F)c1cccc(-c2cc(NC(=O)[C@H]3CNC(=O)[C@@H]3C)nn2-c2cccc(F)c2)c1 [Example 170]
5.5 nM	CCC(F)(F)c1cccc(-c2cc(NC(=O)[C@H]3CNC(=O)[C@@H]3C)nn2-c2ccc(F)cc2)c1 [Example 172]

IC50	SMILES
13 nM	CCC(F)(F)c1cccc(-c2cc(NC(=O)[C@H]3CNC(=O)C3)nn2-c2ccc(F)cc2)c1 [Example 173]
55 nM	CCC(F)(F)c1cccc(-c2cc(NC(=O)[C@H]3CNC(=O)[C@@H]3C)nn2CCOC(C)C)c1 [Example 176]
56 nM	CC(C)(C)c1cccc(-c2cc(NC(=O)[C@H]3CNC(=O)C3)nn2C2CCOCC2)c1 [Example 177]
14 nM	C[C@H]1C(=O)NC[C@@H]1C(=O)Nc1cc(-c2cccc(C(C)(C)C)c2)n(C2CCOCC2)n1 [Example 178]
19 nM	CCC(F)(F)c1cccc(-c2cc(NC(=O)[C@H]3CNC(=O)[C@@H]3C)nn2C2CCOCC2)c1 [Example 179]
4.3 nM	CCC(F)(F)c1cccc(-c2cc(NC(=O)[C@H]3CNC(=O)C3)nn2-c2cccc(F)c2)c1 [Example 181]
3.8 nM	CCC(F)(F)c1cccc(-c2cc(NC(=O)[C@H]3CNC(=O)C3)nn2-c2ccccc2F)c1 [Example 182]
20100 nM	O=C1C[C@@H](C(=O)Nc2cc(-c3cccc(OC(F)(F)F)c3)n(-c3ccc(F)cc3F)n2)CN1 [Example 183]
42 nM	O=C1C[C@@H](C(=O)Nc2cc(-c3cccc(OC(F)(F)F)c3)n(C3CCOCC3)n2)CN1 [Example 187]
23 nM	C[C@H]1C(=O)NC[C@@H]1C(=O)Nc1cc(-c2cccc(OC(F)(F)F)c2)n(C2CCOCC2)n1 [Example 188]
130 nM	O=C1C[C@@H](C(=O)Nc2cc(-c3cccc(OC(F)(F)F)c3)n(CCC(F)(F)F)n2)CN1 [Example 190]
54 nM	C[C@H]1C(=O)NC[C@@H]1C(=O)Nc1cc(-c2cccc(OC(F)(F)F)c2)n(CCC(F)(F)F)n1 [Example 191]
1.3 nM	C[C@H]1C(=O)NC[C@@H]1C(=O)Nc1cc(-c2cccc(OC(F)(F)F)c2)n(-c2ccccc2Cl)n1 [Example 193]
0.7 nM	C[C@H]1C(=O)NC[C@@H]1C(=O)Nc1cc(-c2cccc(C(C)(C)C)c2)n(-c2ccccc2Cl)n1 [Example 194]
8.3 nM	Cc1cc(F)ccc1-n1nc(NC(=O)[C@H]2CNC(=O)C2)cc1-c1cccc(OC(F)(F)F)c1 [Example 195]
4.8 nM	Cc1cc(F)ccc1-n1nc(NC(=O)[C@H]2CNC(=O)[C@@H]2C)cc1-c1cccc(OC(F)(F)F)c1 [Example 196]
180 nM	O=C1C[C@@H](C(=O)Nc2cc(-c3cccc(OC(F)(F)F)c3)n(C3CCC(F)(F)CC3)n2)CN1 [Example 197]
67 nM	C[C@H]1C(=O)NC[C@@H]1C(=O)Nc1cc(-c2cccc(OC(F)(F)F)c2)n(C2CCC(F)(F)CC2)n1 [Example 198]
120 nM	C[C@H]1C(=O)NC[C@@H]1C(=O)Nc1cc(-c2cccc(OC(F)(F)F)c2)n(CC2CCOCC2)n1 [Example 200]

IC50	SMILES
93 nM	O=C1C[C@@H](C(=O)Nc2cc(-c3cccc(OC(F)(F)F)c3)n(CCC3CCOCC3)n2)CN1 [Example 201]
12 nM	C[C@H]1C(=O)NC[C@@H]1C(=O)Nc1cc(-c2cccc(C(F)(F)F)c2)n(-c2ccc(F)cc2)n1 [Example 202]
1.4 nM	C[C@H]1C(=O)NC[C@@H]1C(=O)Nc1cc(-c2cccc(C(F)(F)F)c2)n(-c2ccccc2Cl)n1 [Example 203]
18 nM	O=C1C[C@@H](C(=O)Nc2cc(-c3cccc(C(F)(F)F)c3)n(-c3ccc(F)cc3)n2)CN1 [Example 204]
3.6 nM	O=C1C[C@@H](C(=O)Nc2cc(-c3cccc(C(F)(F)F)c3)n(-c3ccccc3Cl)n2)CN1 [Example 205]
4.8 nM	O=C1C[C@@H](C(=O)Nc2cc(-c3cccc(OCC(F)(F)F)c3)n(-c3cccc(F)c3)n2)CN1 [Example 206]
4.7 nM	C[C@H]1C(=O)NC[C@@H]1C(=O)Nc1cc(-c2cccc(C(F)(F)F)c2)n(-c2ccccc2)n1 [Example 207]
1.3 nM	CCC(F)(F)c1cccc(-c2cc(NC(=O)[C@H]3CNC(=O)[C@@H]3C)nn2-c2ccccc2Cl)c1 [Example 208]
9.2 nM	C[C@H]1C(=O)NC[C@@H]1C(=O)Nc1cc(-c2cccc(C(F)(F)F)c2)n(-c2cccc(F)c2)n1 [Example 209]
5.9 nM	C[C@H]1C(=O)NC[C@@H]1C(=O)Nc1cc(-c2cccc(OCC(F)(F)F)c2)n(-c2ccccc2)n1 [Example 210]
17 nM	O=C1C[C@@H](C(=O)Nc2cc(-c3cccc(OCC(F)(F)F)c3)n(-c3ccc(F)cc3)n2)CN1 [Example 211]
5.8 nM	C[C@H]1C(=O)NC[C@@H]1C(=O)Nc1cc(-c2cccc(OCC(F)(F)F)c2)n(-c2ccc(F)cc2)n1 [Example 212]
14 nM	O=C1C[C@@H](C(=O)Nc2cc(-c3cccc(C(F)(F)F)c3)n(-c3cccc(F)c3)n2)CN1 [Example 213]
2.3 nM	O=C1C[C@@H](C(=O)Nc2cc(-c3cccc(OCC(F)(F)F)c3)n(-c3ccccc3Cl)n2)CN1 [Example 214]
1.4 nM	C[C@H]1C(=O)NC[C@@H]1C(=O)Nc1cc(-c2cccc(OCC(F)(F)F)c2)n(-c2ccccc2Cl)n1 [Example 215]
8.7 nM	Cc1ccc(-n2nc(NC(=O)[C@H]3CNC(=O)C3)cc2-c2cccc(OCC(F)(F)F)c2)cc1 [Example 216]
6.2 nM	Cc1ccc(-n2nc(NC(=O)[C@H]3CNC(=O)[C@@H]3C)cc2-c2cccc(OCC(F)(F)F)c2)cc1 [Example 217]
4.1 nM	C[C@H]1C(=O)NC[C@@H]1C(=O)Nc1cc(-c2cccc(OCC(F)(F)F)c2)n(-c2cccc(F)c2)n1 [Example 222]

same assay, conditions: CHO-K1, at 0.03 uM

inhibition at 0.03 µM	SMILES
3%	C[C@H]1C(=O)NC[C@@H]1C(=O)Nc1cc(-c2cccc(OC(F)(F)F)c2)n(-c2ccc(F)cc2F)n1 [Example 184]

same assay, conditions: CHO-K1, at 0.1 uM

inhibition at 0.1 µM	SMILES
38%	CCCc1cc(CO)cc(-c2cc(NC(=O)[C@H]3CNC(=O)C3)nn2-c2ccccc2)c1 [Example 146]
4%	CCC(F)(F)c1cccc(-c2cc(NC(=O)[C@H]3CNC(=O)C3)nn2CCN2CCCC2)c1 [Example 169]
40%	CCC(F)(F)c1cccc(-c2cc(NC(=O)[C@H]3CNC(=O)C3)nn2CCOC(C)C)c1 [Example 175]
26%	C[C@@H]1C[C@@H](n2nc(NC(=O)[C@H]3CNC(=O)C3)cc2-c2cccc(OC(F)(F)F)c2)C[C@H](C)O1 [Example 218]
20%	C[C@@H]1C[C@H](n2nc(NC(=O)[C@H]3CNC(=O)C3)cc2-c2cccc(OC(F)(F)F)c2)C[C@H](C)O1 [Example 219]
16%	C[C@@H]1C[C@@H](n2nc(NC(=O)[C@H]3CNC(=O)[C@@H]3C)cc2-c2cccc(OC(F)(F)F)c2)C[C@H](C)O1 [Example 220]
15%	C[C@@H]1C[C@H](n2nc(NC(=O)[C@H]3CNC(=O)[C@@H]3C)cc2-c2cccc(OC(F)(F)F)c2)C[C@H](C)O1 [Example 221]

same assay, conditions: CHO-K1, at 0.3 uM

inhibition at 0.3 µM	SMILES
-10%	C[C@H]1C(=O)NC[C@@H]1C(=O)Nc1cc(-c2cccc(OC(F)(F)F)c2)n(-c2ccc(Cl)c(F)c2)n1 [Example 180]
6%	O=C1C[C@@H](C(=O)Nc2cc(-c3cccc(OC(F)(F)F)c3)n(-c3ccc(F)cc3Cl)n2)CN1 [Example 192]
40%	O=C1C[C@@H](C(=O)Nc2cc(-c3cccc(OC(F)(F)F)c3)n(CC3CCOCC3)n2)CN1 [Example 199]

same assay, conditions: CHO-K1, at 1 uM

inhibition at 1 µM	SMILES
9%	O=C1C[C@@H](C(=O)Nc2cc(-c3cccc(OC(F)(F)F)c3)n(-c3ccc(Cl)c(F)c3)n2)CN1 [Example 174]
